For orientation: IC50 means the concentration needed to halve the response being measured. A low value points to greater potency. One may read the EC50 as the concentration that produces a half-maximal response.

The text below walks through data of patent publication US5840750A, “Discodermolide compounds” (priority 1996, dated 1998).

For one assay, the system named is BMSC 8.6. Nature of the assay: Constitutive proliferation of murine non-lymphoid BMSC 8.6 cells. It counts as cell-based. The settings on record: BMSC lines; up to 1 μg/ml. From the text: (§1) ^d Bone marrow stromal cells (MBSC) derived from CS7BL/6 mice.
The subject of another assay is Normal Fibroblast. Nature of the assay: Constitutive proliferation of human non-lymphoid normal (foreskin) fibroblasts. The conditions noted are these: human fibroblasts; up to 3 μM.
Another assay relates to BMSC 8.3. Nature of the assay: Constitutive proliferation of murine non-lymphoid BMSC 8.3 cells. It counts as cell-based. The conditions noted are these: BMSC lines; up to 1 μg/ml.
From the text: as §1

Another assay deals with BMSC 25.4. Nature of the assay: Constitutive proliferation of murine non-lymphoid BMSC 25.4 cells. It is filed as cell-based. The conditions noted are these: BMSC lines; up to 1 μg/ml.
From the text: as §1

A further assay relates to Swiss 3TC. Nature of the assay: Constitutive proliferation of murine non-lymphoid Swiss 3TC cells. It is filed as cell-based. The settings on record: 3T3; up to 1 μg/ml.
A further assay concerns P388. Nature of the assay: P388 IC50 (biological activity of octahydrodiscodermolide compounds). It counts as cell-based. On the procedure:
(§2) The octahydrodiscodermolide compounds were tested for biological activity and the following results obtained: […]

In another assay the test system is A549. Nature of the assay: A549 IC50 (biological activity of octahydrodiscodermolide compounds). It counts as cell-based, human. Here is the method:
as §2

Assay [1] relates to tubulin. Nature of the assay: Electron micrographs of polymers of tubulin. It counts as biochemical. The conditions noted are these: compared with control.
Assay [2] concerns tubulin. Nature of the assay: EC50 for the polymerization of tubulin. It counts as biochemical. The conditions noted are these: additional studies. On the procedure:
(§3) Discodermolide was analyzed for its interactions with tubulin. Tubulin polymerization was monitored turbidimetrically at 350 nm with an electronic temperature controller. Reaction mixtures contained 0.1M 4-morpholine-ethanesulfonate (pH 6.9), 1.0 mg/ml (10 μM) electrophoretically-homogenous bovine brain tubulin freed of unbound nucleotide by gel filtration, 0.5 mg/ml heat-treated MAPs, 100 μM GTP, and 4% (v/v) dimethylsulfoxide. A concentration of 10 μM of discodermolide (curve 3) was compared with the same concentration of taxol (curve 2) and no drug (curve 1), as shown in FIG. 5.

The test system of another assay is bovine brain tubulin. Nature of the assay: Tubulin polymerization monitored turbidimetrically. It counts as biochemical. The settings on record: 10 μM drug. Here is the method:
as §3

Assay [3] has as its system Jurkat human leukemia cells. Nature of the assay: Cell cycle analysis of Jurkat human leukemia cells. It counts as cell-based. The conditions noted are these: 48 hours, discodermolide 100 ng/ml. On the procedure: Discodermolide and taxol were compared for their effects on the proliferation of Jurkat human leukemia cells. Cell cultures were similarly initiated in the presence and absence of various concentrations of discodermolide or taxol and incubated at 37° C. in 10% CO2 in air for 48 hours. Cells were harvested and stained and analyzed on a flow cytometer using standard procedures. […] The percentage of S-phase cells in both groups increased from 25% in the control to 38% in both discodermolide- and taxol-treated cells.

For another assay, the system named is microtubules. The conditions noted are these: literature; cited from earlier work.
Assay [4] relates to microtubule cytoskeleton in MCF-7 cells and MDA-MB-231 cells. Nature of the assay: Indirect immunofluorescence for effects on the microtubule cytoskeleton of human breast carcinoma cells. It is filed as cell-based. The conditions noted are these: Homo sapiens, Breast carcinoma cell; only at much higher drug concentrations; read-out: concentration at which immunofluorescence changes occurred. Here is the method: (§4) The effect of discodermolide on two human breast carcinoma cell lines, estrogen receptor positive MCF-7 cells, and estrogen receptor negative MDA-MB-231 cells, was determined. The results were compared with those obtained by treatment with taxol. Both lines were examined for drug effects on growth and by indirect immunofluorescence for effects on the microtubule cytoskeleton. The results were similar for both lines. […] These patterns appeared at concentrations as low as 10 nm.

The subject of assay [5] is GI-101A human breast cells. Nature of the assay: Cell cycle analysis of GI-101A human breast cells. It counts as cell-based. The settings on record: 24 hours. On the procedure:
(§5) Cell cycle studies were initiated in order to pinpoint a specific phase within the cell cycle in which discodermolide was exerting its antiproliferative effect. GI-101A human breast and A549 human lung cells were used as cell cycle targets to compare the effects of discodermolide and taxol on perturbation of the cell cycle. Cell cycle analyses were performed as follows: GI-101A and A549 cells were incubated at 37° C. in 10% CO2 in air in the presence or absence of varying concentrations of discodermolide or taxol (purchased from Molecular Probes, Eugene, Oreg.) for 48 hours. Cells were harvested, fixed in ethanol, and stained with 0.5 mg/ml of propidium iodide (P.I.) together with 0.1 mg/ml of RNase A. This procedure permeabilizes live cells and allows entry of P.I. to stain DNA. Stained preparations were analyzed on a Coulter EPICS ELITE with 488 nm excitation with the dead cells excluded by back-gating of P.I. preparations without detergent on forward and side scatter histograms. Fluorescence measurements and resulting DNA histograms were collected from at least 5,000 P.I. stained cells at an emission wavelength of 690 nm. Raw histogram data were further analyzed using a cell cycle analysis program (Multicycle, Phoenix Flow Systems).
Approximately 56% of the control cells comprise the G1 phase of the cell cycle, and 30% comprise the S phase. Only approximately 14% of cells are demonstrable in the G2 /M phase in asynchronous cultures at any one time mainly due to their high proliferative rate (FIG. 2A). At 24 hours post culture initiation with 100 ng/ml of discodermolide, the percentage of cells in G1 phase decreased to 22%. […] The percentage of cells in G1 decreased from 56% in the control to 27% in taxol-treated cultures.

Another assay concerns cancers. The conditions noted are these: clinical trials; cited from earlier work.
The subject of a further assay is A549 human lung cells. Nature of the assay: Cell cycle analysis of A549 human lung cells. It counts as cell-based. The conditions noted are these: 48 hours. Here is the method:
as §5
Discodermolide and taxol were compared for their effects on the proliferation of A549 human lung cells. Cell cultures were similarly initiated in the presence and absence of various concentrations of discodermolide or taxol and incubated at 37° C. in 10% CO2 in air for 48 hours. Cells were harvested and stained and analyzed on the flow cytometer as outlined above.

The test system of assay [6] is MCF-7 cells and MDA-MB-231 cells. Nature of the assay: Growth of human breast carcinoma cells. The conditions noted are these: Breast carcinoma cell, results similar for both lines (MCF-7, MDA-MB-231). It is filed as cell-based. On the procedure:
as §4

Some results are limits rather than exact numbers.

From the text for Swiss 3TC: The effects of discodermolide on the inhibition of constitutive proliferation of a number of lymphoid and non-lymphoid cell lines of mouse or human origin was investigated.

As for Cyclosporin A [reference compound], the “inhibition (Cyclosporin A)” value in the assay with BMSC 8.6, with Normal Fibroblast, with BMSC 8.3, in the assay with BMSC 25.4 and in the assay on Swiss 3TC was “no” each time.

As for octahydrodiscodermolide [20SG721], the IC50 amounted to 0.02 mg/L with P388 and 0.008 mg/L in the assay on A549.

For the compound `CC(=O)O[C@H]1C(=O)[C@@]2(C)[C@H]([C@H](OC(=O)c3ccccc3)[C@]3(O)C[C@H](OC(=O)[C@H](O)[C@@H](NC(=O)c4ccccc4)c4ccccc4)C(C)=C1C3(C)C)[C@]1(OC(C)=O)CO[C@@H]1C[C@@H]2O` [taxol, reference compound], in the assay on tubulin [1], the “electron micrographs of polymers of tubulin” value is “very similar characteristics, presence of polymers, microtubules, and sheets; however, the taxol-inducedpolymers were somewhat longer than those induced with discodermolide”. Further, in the assay with tubulin [2], the midpoint of the response, the EC50, lay at 23 µM. The “temperature at which tubulin polymerization/assembly began” value in the assay with bovine brain tubulin (10 μM tubulin, MAPs, GTP, control 37° C.) came to 10 °C. For the same compound, the “stability of assembly upon return of the mixture to 0° C.” value in the assay with bovine brain tubulin (control disassembled) is “modest decline”. Besides, the “percentage of cells in G2 /M” value came to 28% in assay [3] (control 7%); 37% in assay [5] (discodermolide 100 ng/ml, control 14%); 77% in the assay with A549 human lung cells (discodermolide 100 ng/ml, control 4%). For the same compound, the “percentage of S-phase cells” value in assay [3] (control 25%) is reported as 38%. Besides, the “percentage of cells in G1” value was 34% in [3] (control 68%) and 11% in the assay with A549 human lung cells (discodermolide 100 ng/ml, control 77%). In the assay on microtubules, the effect on microtubules entry was “stabilizes microtubules and inhibits their depolymerization to free tubulin”. For the same compound, the minimal effective concentration in assay [4] was determined as 1 µM. Also, in assay [5] (GI-101A), the “effect on cell cycle progression” value is “block at G2 /M”. Moreover, the “percentage of S phase cells” value in assay [5] (discodermolide 100 ng/ml, control 30%) was determined as 37%. Also, in [5] (discodermolide 100 ng/ml, control 56%), the “percentage of cells in G1 phase” value is on record as 27%. The clinical effect result in the assay with cancers is reported as “effective in the treatment of a wide range of cancers”. In addition, the “percentage of S phase cells (in words)” value in the assay on A549 human lung cells (control 19%) was “did not change significantly”. The compound also gave an IC50 in assay [6] of 0.0021 µM.

As for octahydrodiscodermolide [20SG724], the IC50 in the assay with P388 is 3.56 mg/L; in the assay with A549 it was over 5 mg/L.
